Test results reported in PubChem BioAssay AID1626 (SRMLSC, 2009).

System: M. tuberculosis H37Rv growth inhibition
Test: M. tuberculosis H37Rv growth inhibitors, H37Rv strain (AID 1626)
Conditions: for IC90: measured here: IC90 against H37Rv; for CC50: measured here: Vero cell cytotoxicity

SMILES | IC50 | IC90 | CC50
O=C(COc1ccc2c(C(F)(F)F)cc(=O)oc2c1)NCc1cccs1 | 14.8 µM | > 100 µM | 
Nc1ncnc2c1ccn2[C@@H]1O[C@H](CO)[C@@H](O)[C@H]1O | 2.44 µM | 3.87 µM | 0.131 µM
N=C1SCC(=O)N1c1ncc(Cc2ccc(F)cc2)s1 | < 0.195 µM | > 100 µM | > 40 µM
Cn1c2c(c(=O)n(C)c1=O)C(C(F)(F)F)(C(F)(F)F)N=C(c1ccc(Cl)cc1)N2 | 4.92 µM | 6.68 µM | 2.61 µM
Cc1cc(N)c2cc(NC(=O)/C=C/c3ccccc3Cl)ccc2n1 | 1.68 µM | 2.84 µM | 1.76 µM
Cc1ccc(N2C(=O)C(F)(F)C2c2ccccc2)cc1 (centres undefined) | 4.38 µM | 19.7 µM | 
C=C1C(=O)O[C@@H]2C[C@@H](C)[C@@H]3C=CC(=O)[C@@]3(C)[C@@H](OC(C)=O)[C@H]12 | 2.07 µM | 3.51 µM | 2.02 µM
COc1cccc(CNc2ccccc2O)c1OCc1ccccc1F |  | > 100 µM | > 40 µM
CCOc1ccc(Nc2nc(N)nc(CN3CCN(c4ccccc4F)CC3)n2)cc1 | 7.83 µM | 16.8 µM | 
COc1cccc(C(=O)Nc2ccc3nc(N4CCN(c5ncccn5)CC4)cc(C)c3c2)c1OC | < 0.195 µM | 1.72 µM | 15.2 µM
CCCCC(=O)Nc1ccc2c(c1)oc1ccccc12 |  | > 100 µM | 
O=C(/C=C/c1ccco1)Nc1nc(-c2ccccn2)cs1 | 0.446 µM | 3.54 µM | > 40 µM
Cc1nc(-c2ccccn2)nc(SCC(=O)c2ccc(F)cc2)c1Cl | 7.37 µM | 13.8 µM | > 40 µM
Cc1nc(N2CCOCC2)c2c(C)c(C(=O)Nc3ccc(C(F)(F)F)cc3)sc2n1 |  |  | > 40 µM
Cc1ccccc1OCc1n(CC(=O)OC2CC(C)CCC2C(C)C)c2ccccc2[n+]1C (centres undefined) | 3.74 µM | 5.17 µM | 24.4 µM
COc1cccc(CNCCc2c[nH]c3ccccc23)c1OCc1ccccc1F | 7.08 µM | 11.3 µM | 14.4 µM
CCC(CO)[n+]1c(C)cc(/C=C2\Sc3ccccc3N2Cc2ccccc2)cc1C (centres undefined) | 1.3 µM | 1.95 µM | 23.2 µM
COc1cccc(C(=O)Oc2ccccc2/C=C\C(=O)c2cc3ccccc3o2)c1 | 3.43 µM | 5.83 µM | 11.4 µM
O=C(OCc1nc2ccccc2s1)c1ccco1 | 32.7 µM | > 100 µM | 
COc1ccc(-c2cc(C(F)(F)F)n3ncc(C(=O)N4CCCCC4c4cccnc4)c3n2)cc1 (centres undefined) |  | > 100 µM | 
COc1ccccc1N1CCN(c2ncc(C(=O)N3CCN(c4cccc(Cl)c4)CC3)c3ccccc23)CC1 |  |  | > 40 µM

SMILES | IC50 | IC90 | CC50
CCOC(=O)Cc1csc(NC(=O)c2csc3c2CCCC3)n1 | 9.18 µM | 12.5 µM | > 40 µM
Clc1ccc(SCc2cc(N3CCOCC3)nc(-c3ccccn3)n2)cc1 | 8.83 µM | 41.6 µM | 12.2 µM
CCOC(=O)/C=C/C(=O)Nc1nccs1 |  | > 100 µM | 
Cc1nn2c(NCCCn3ccnc3)cc(C(C)C)nc2c1-c1ccccc1 | 7.66 µM | 11.9 µM | 26.4 µM
Cc1c(-c2cccc(Cl)c2)nc2ccccc2c1C(=O)OCC(=O)Nc1ccc2c(c1)OCO2 | 10.9 µM | > 100 µM | 38.8 µM
CC(C)c1ccc(Nc2nc(NCc3ccco3)nc(N3CCOCC3)n2)cc1 | 4.99 µM | 8.29 µM | 34.6 µM
CC(C)(C)C(=O)Nc1ccc(-c2nc3ccccc3c(=O)o2)cc1 | 9.98 µM | 20.2 µM | 
Cc1ccn2c(Nc3ccccc3C)c(-c3ccccn3)nc2c1 | 1.42 µM | 1.59 µM | 3.12 µM
Cc1cccc(NC(=O)/C=C/c2ccc([N+](=O)[O-])s2)c1 | < 0.391 µM | < 0.391 µM | 6.99 µM
CCOC(=O)c1ccc(NC(=O)CCc2nc(-c3ccccc3)no2)cc1 | 2.32 µM | > 100 µM | > 40 µM
Cc1cccc(-c2nsc(SCC(=O)NCc3ccc4c(c3)OCO4)n2)c1 | 7.57 µM | > 100 µM | 
COc1ccccc1-c1nnc(SCC(=O)Nc2cc(C)on2)o1 | 10.4 µM | 16.5 µM | 
CC(=O)Nc1ccc(Nc2cc(C)nc3c(-c4ccccc4)c(C)nn23)cc1 |  | > 100 µM | > 40 µM
c1ccc2c(Nc3ccc4c(c3)OCCO4)c3c(nc2c1)CCCC3 | 11.3 µM | 29.1 µM | > 40 µM
CCOC(=O)c1cnc(-n2nc(C)cc2C)nc1NC(C)c1ccccc1 (centres undefined) | 1.06 µM | 2.08 µM | 36 µM
CC(C)Cn1c(N2CCN(C(=O)/C=C/c3ccccc3)CC2)nc2ccccc21 | 21.5 µM | 29.9 µM | 
Cc1cccc(OCc2nnc(SCC(=O)OC3CCCCC3)o2)c1 | 1.25 µM | 5.46 µM | 
CCc1ccc(NC(=O)CSc2ccccn2)cc1 | 22.1 µM | > 100 µM | 
COc1ccccc1N1CCN(c2nc(C)nc3c2oc2ccccc23)CC1 | 1.74 µM | 3.89 µM | 5.01 µM
Cc1nc(SCc2ccccc2F)c2oc3ccccc3c2n1 |  | > 100 µM | 
Cc1nn(-c2ccccc2)c(Cl)c1CN(C(=O)CCl)c1ccc(Cl)cc1 | 13.5 µM | 31.3 µM | 1.82 µM

SMILES | IC50 | IC90 | CC50
N=C1/C(=C/c2ccc(OC(=O)c3ccco3)cc2)C(=O)N=C2SC=CN12 |  | > 100 µM | 
Cc1[nH]n2c(=O)cc(C(C)(C)C)nc2c1-c1ccccc1 | 0.407 µM | 2.91 µM | 13.1 µM
O=[N+]([O-])c1ccc(-c2nc(C(Cl)Cl)c3ccccc3n2)cc1 | < 0.195 µM | < 0.195 µM | < 0.078 µM
C=CCn1c(SCc2ccc(C(=O)Nc3nccs3)cc2)nnc1-c1ccc(C)c(Cl)c1 | 6.82 µM | 17.6 µM | 32.9 µM
CCOc1ccc(-n2cc(-c3ccccc3)c3c(SC(C)C(=O)OC)ncnc32)cc1 (centres undefined) | 6.4 µM | > 100 µM | 
Cc1ccc(-c2ccc(/C=C3\SC(N4CCOCC4)=NC3=O)o2)cc1 | 23.5 µM | > 100 µM | > 40 µM
FC(F)(F)c1ccc(N2CCOCC2)c(Nc2nc3ccccc3n3cnnc23)c1 | 8.57 µM | 18.3 µM | 24.5 µM
COc1ccc(OCc2n(CC(=O)OC3CC(C)CCC3C(C)C)c3ccccc3[n+]2C)cc1 (centres undefined) | 3.34 µM | 5.49 µM | 26.4 µM
O=C(CSc1ncnc2sc3c(c12)CCCC3)N1CCC(c2noc3ccc(F)cc23)CC1 | 2.94 µM | 4.24 µM | > 40 µM
CCCCNC(=O)COC(=O)c1cc(Br)ccc1Cl | 4.35 µM | 10.5 µM | 
CC(=O)n1cc(N(C(=O)CCl)c2ccc(C)cc2)c2ccccc21 | 4.64 µM | 17.1 µM | 0.471 µM
COc1ccc(/C=c2\s/c(=C/C(=O)c3ccc(C)cc3)[nH]c2=O)cc1OC | 32.6 µM | > 100 µM | 
CCOc1ccc(NC(=O)CCCc2cc(-c3ccc(OCC)cc3)on2)cc1 | 47.1 µM | > 100 µM | 
CCOC(=O)c1cnc(-n2nc(C)cc2C)nc1N(CC)CC | 3.78 µM | 6.53 µM | > 40 µM
COC(=O)c1cccc(OC(N)=O)c1 | 72.9 µM | > 100 µM | 
O=[N+]([O-])c1ccc(O)c(C=Nc2ccc3oc(Cc4ccc(Cl)cc4)nc3c2)c1 | 26.4 µM | > 100 µM | 
Cn1cnc([N+](=O)[O-])c1S(=O)(=O)c1ccc(Cl)cc1 | 8.35 µM | 10.7 µM | 23.4 µM
Cc1cc(Oc2ccc(Cl)cc2)nc(-c2ccccn2)n1 | 14.5 µM | > 100 µM | 21.1 µM
COc1cc(CNCCc2ccccc2)cc(Cl)c1OCc1ccccc1 | 8.64 µM | 11 µM | 27.8 µM
CCC(=O)Nc1nnc(-c2ccc(OC)cc2)o1 | 6.08 µM | > 100 µM | 
CCCN(CCC)CC(O)Cn1cc(/C=C/C(=O)c2ccccc2)c2ccccc21 (centres undefined) | 1.5 µM | 1.66 µM | 20.3 µM

SMILES | IC50 | IC90 | CC50
COc1cnc(-c2ccccn2)nc1Oc1c(C)cccc1C | 5.19 µM | 14.7 µM | 19.8 µM
CCCCCCCCCCn1c2c(c(=N)c3c1CCC3)CCC2 | 2.42 µM | 3.59 µM | 6.09 µM
Cc1ccc(C(=O)Nc2nnc(-c3ccncc3)o2)cc1 | 5.94 µM | 6.95 µM | > 40 µM
O=C(Nc1ccc2oc(-c3cccnc3)nc2c1)c1ccc([N+](=O)[O-])o1 | < 0.195 µM | > 100 µM | 1.32 µM
Cc1ccccc1/C=c1\s/c(=C\C(=O)C(C)(C)C)[nH]c1=O | 52.8 µM | > 100 µM | 17.2 µM
CCN(CC)c1ccc(N=Cc2c(C)[nH]c3ccccc23)cc1 | 22.1 µM | 35.1 µM | > 40 µM
CCCCCCCCCCNC(=O)C(=O)Nc1ccccn1 | 6.97 µM | > 100 µM | 
Cc1ccc(NC(=O)COc2ccc(-n3ccnc3)cc2)cc1Cl | 3.82 µM | 12.2 µM | 
Cc1cc(Cl)n2c(nc3cc(F)c(F)cc32)c1C#N | 3.98 µM | 10.5 µM | 2.29 µM
Cc1ccc(-c2ccc(/C=N/c3ncn[nH]3)o2)cc1Cl | 30.2 µM | > 100 µM | 
CN(C)CCCn1c(=O)n(CCc2ccccc2)c(=O)c2c3c(sc21)CCCCC3 | 11.6 µM | 12.9 µM | 18.1 µM
CC(=O)Nc1nc2ccccc2n1Cc1ccccc1Cl | < 0.195 µM | > 100 µM | 16.3 µM
O=C(CCNc1ccc(Cl)c(C(F)(F)F)c1)c1ccco1 | 49.3 µM | > 100 µM | 
CC(C)N1C(=O)NC(=O)C2(Cc3cc([N+](=O)[O-])ccc3N(C)C2c2ccccc2)C1=O (centres undefined) | 17.8 µM | 52.1 µM | > 40 µM
CC(=O)Oc1c(-c2ccco2)oc2ccccc2c1=O | 51.4 µM | > 100 µM | 
COc1cc(/C=C/C(=O)c2cccc([N+](=O)[O-])c2)cc(OC)c1OC | 3.77 µM | 11.2 µM | 18.5 µM
O=C(COc1ccc(Cl)cc1Cl)N1CCN(C/C=C/c2ccccc2)CC1 | 17 µM | 21.6 µM | > 40 µM
CCc1nnc(NC(=O)c2cc3ccccc3oc2=O)s1 | < 0.195 µM | 4.5 µM | 
